Measured values: PMC7321408, “One-Pot Multicomponent Synthesis and Bioevaluation of Tetrahydroquinoline Derivatives as Potential Antioxidants, α-Amylase Enzyme Inhibitors, Anti-Cancerous and Anti-Inflammatory Agents” (Molecules, 2020)
≈ marks a conversion by molar mass, not a printed value. Like-named read-outs stand apart in the source and are kept apart here.

Legend:
[1] = DPPH free radical scavenging assay; conditions: mean ± SEM, n = 3
Method in brief: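 Compounds at 200, 66.6, 22.2 and 7.4 µg/mL were mixed with DPPH radical, with DMSO as the negative control. Absorbance was read at 630 nm, and % scavenging was calculated as (1 − Abs/Abc) × 100 against the control.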

brine shrimp nauplii = test: Brine shrimp lethality bioassay; assay type: in vivo; conditions: 24 h, n = 3
Method in brief: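 Ten hatched nauplii per well in artificial seawater were exposed to test compounds at 400, 200, 100 and 50 µg/mL under a lamp. Survivors counted after 24 h; percentage mortality calculated; triplicate.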

[2] = MTT cytotoxicity against raw macrophages; assay type: cell-based, albino rats; conditions: albino, rat
Method in brief: (§1)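 Peritoneal macrophages from albino rats were treated for 24 h at 37 °C, 5% CO2 with test compounds at 100, 50, 10 and 1 µM or vehicle, from DMSO stocks. MTT was then added for 2 h, formazan dissolved in DMSO and absorbance read at 570 nm. % viability = blank-corrected sample over blank-corrected control ×100.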

raw macrophages = test: MTT cytotoxicity against raw macrophages; assay type: cell-based, albino rats; conditions: mean ± SEM, n = 3
Method in brief: as §1

Hep-2C cells = test: MTT assay against Hep-2C cells; assay type: cell-based, Human; conditions: Homo sapiens, Hep2C, read-out: IC50 (Mean ± SEM) Hep-2C Cells
Experimental: Hep-2C cell line experiments were performed in the Immunology Lab of the National Institute of Health (NIH), Islamabad, Pakistan. Human cervix carcinoma cells Hep-2C (ATCC HB-8065) were cultured in Dulbecco’s modified Eagle’s medium (DMEM), comprising 10% fetal calf serum (10% FCS) and supplemented with 2 mM L-glutamine, 100 U/mL penicillin, 100 µg/mL streptomycin and 1 mM Na pyruvate, at 37 °C in a humidified 5% CO2 incubator.
The tetrazolium dye 3-(4, 5-dimethyl thiazolyl-2)-2, 5-diphenyltetrazolium bromide (MTT) was used to assess the cytotoxic potential of the test compounds. In living cells, MTT is reduced into its insoluble purple product formazan, which is measured spectrophotometrically.
Hep-2C cells, in a density of 1 × 10^6 (> 90% cell viability), were cultured in a 96-well plate and treated with different concentrations of the test compounds for 24, 48 and 72 h. Ten microliters of MTT (1 mg per mL) were added per well followed by incubation for 4 h. Insoluble formazan crystals were dissolved by adding 100 µL of DMSO. Cells were then incubated for another 2 h. Absorbance was measured at 570 nm by a microplate reader. Untreated Hep-2C cells were taken as controls and DMSO as a negative. % cell viability = (abssample − absblank)/(abscontrol − absblank) × 100

[3] = tested on: NO generated by LPS-induced macrophages; test: Nitric oxide assay (Griess) in LPS-induced macrophages; assay type: cell-based, murine; conditions: Mus musculus, Macrophage, 18 h, LPS 1 µg/mL, read-out: % NO Production (Mean ± SEM)
Method in brief: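 Murine macrophages (1 × 10^6/well) pre-treated 2 h with compound at 100, 50, 10 or 1 µM, then LPS 1 µg/mL for 18 h. Nitrite in medium measured with Griess reagent at 540 nm against a NaNO2 standard curve; piroxicam as positive control, t-test for significance.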

CCCN(CCC)CN1CCCc2ccccc21 [SF4, N-((3,4-dihydroquinolin-1(2H)-yl), methyl)-N-propylpropan-1 amine]
% DPPH Scavenging Activity ([1]; 7.4 µg/mL): 18.12 ± 0.20%
% DPPH Scavenging Activity ([1]; 22.22 µg/mL): 41.63 ± 0.28%
% DPPH Scavenging Activity ([1]; 66.66 µg/mL): 53.65 ± 0.14%
% DPPH Scavenging Activity ([1]; 200 µg/mL): 58.58 ± 0.33%
IC50 (DPPH radical scavenging) ([1]; concentration to scavenge 50% of the DPPH radicals): 29.79 ± 0.26 µg/mL (≈ 121 µM)
LD50 ± SEM (brine shrimp lethality) (brine shrimp nauplii): 100 ± 1.78 µg/mL
viability at 24 h, 1 µM ([2]; peritoneal macrophages (raw macrophages), 1 µM, raw macrophages, 24 h, MTT, read-out: % Cell Viability): 79 ± 0.92%
viability at 24 h, 10 µM ([2]; peritoneal macrophages (raw macrophages), 10 µM, raw macrophages, 24 h, MTT, read-out: % Cell Viability): 53 ± 0.63%
viability at 24 h, 50 µM ([2]; peritoneal macrophages (raw macrophages), 50 µM, raw macrophages, 24 h, MTT, read-out: % Cell Viability): 42 ± 0.87%
viability at 24 h, 100 µM ([2]; peritoneal macrophages (raw macrophages), 100 µM, raw macrophages, 24 h, MTT, read-out: % Cell Viability): 39 ± 0.88%
IC50 at 24 h ([2]; primary peritoneal macrophages, mean ± SEM, n = 3): 7.208 ± 0.05 µM
IC50 (raw macrophages): 7.2 ± 0.05 µM
IC50 (Hep-2C cells; 24 h): 23.9 ± 1.07 µM
IC50 (Hep-2C cells; 48 h): 21.2 ± 1.2 µM
IC50 (Hep-2C cells; 72 h): 15.5 ± 1.03 µM
activity at 1 µM ([3]; 1 µM): 43.03 ± 0.41%
activity at 10 µM ([3]; 10 µM): 39.17 ± 0.38%
activity at 50 µM ([3]; 50 µM): 32.05 ± 0.31%
activity at 100 µM ([3]; 100 µM): 20.2 ± 0.28%
